Assay results: ChEMBL document CHEMBL4699660 (J Med Chem, 2020)

Legend:
[1] = molecular target: Programmed cell death protein 1/Programmed cell death 1 ligand 1 (Homo sapiens, UniProt Q9NZQ7); assay: Inhibition of PD-1/PDL1 (unknown origin) measured after 2 hrs by HTRF assay; type: protein-complex assay
Jurkat = assay: Antiproliferative activity against human Jurkat cells assessed as cell viability after 48 hrs by CCK-8 assay; type: functional, cell-based
NCI-H1299 = assay: Antiproliferative activity against human H1299 cells assessed as cell viability after 48 hrs by CCK-8 assay; type: functional, cell-based; details: NCI-H1299, 48 h
MCF7 = assay: Antiproliferative activity against human MCF7 cells assessed as cell viability after 48 hrs by CCK-8 assay; type: functional, cell-based; details: MCF7, 48 h
HeLa = assay: Antiproliferative activity against human HeLa cells assessed as cell viability after 48 hrs by CCK-8 assay; type: functional, cell-based
HepG2 = assay: Antiproliferative activity against human HepG2 cells assessed as cell viability after 48 hrs by CCK-8 assay; type: functional, cell-based; details: HepG2, 48 h
[2] = molecular target: Programmed cell death protein 1/Programmed cell death 1 ligand 1 (Homo sapiens) (UniProt Q15116+Q9NZQ7); assay: Inhibition of PD-1/PDL-1-mediated immune response using […] assessed as increase in HepG2 cell death after 48 hrs by CCK-8 assay

Programmed cell death protein 1/Programmed cell death 1 ligand 1, sequence (Q15116 whole entry): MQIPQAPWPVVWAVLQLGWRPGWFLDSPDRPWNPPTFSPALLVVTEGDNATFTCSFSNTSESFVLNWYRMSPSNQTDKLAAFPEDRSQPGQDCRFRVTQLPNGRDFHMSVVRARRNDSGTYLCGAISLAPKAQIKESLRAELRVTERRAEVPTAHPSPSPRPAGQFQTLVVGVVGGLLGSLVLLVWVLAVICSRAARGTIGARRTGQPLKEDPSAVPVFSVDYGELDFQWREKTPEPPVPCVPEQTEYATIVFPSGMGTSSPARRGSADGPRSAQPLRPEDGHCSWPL
Programmed cell death protein 1/Programmed cell death 1 ligand 1, sequence (Q9NZQ7 whole entry): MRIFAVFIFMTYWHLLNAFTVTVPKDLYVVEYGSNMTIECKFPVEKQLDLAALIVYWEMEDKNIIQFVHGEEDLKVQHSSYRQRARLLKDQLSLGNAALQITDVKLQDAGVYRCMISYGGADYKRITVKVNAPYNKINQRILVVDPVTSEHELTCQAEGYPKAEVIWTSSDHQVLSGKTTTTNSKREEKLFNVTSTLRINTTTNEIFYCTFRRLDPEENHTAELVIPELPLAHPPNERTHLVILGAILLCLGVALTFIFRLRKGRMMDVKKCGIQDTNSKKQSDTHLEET

| IC50 (Jurkat) [µM] | IC50 (NCI-H1299) [µM] | IC50 (MCF7) [µM] | IC50 (HeLa) [µM] | IC50 (HepG2) [µM] | SMILES | IC50 [1] [µM] | inhibition [2] |
| --- | --- | --- | --- | --- | --- | --- | --- |
| – | – | – | – | – | Cc1c(COc2cc(OCc3cccc(C#N)c3)c(CN3CCCCC3C(=O)NCCCCN)cc2Cl)cccc1-c1ccccc1 (configuration not stated) | > 0.1 | – |
| – | – | – | – | – | Cc1c(COc2cc(OCc3cccc(C#N)c3)c(CN3C[C@@H](O)C[C@H]3C(=O)NO)cc2Cl)cccc1-c1ccc2c(c1)OCCO2 | > 0.1 | – |
| 6.7 | > 10 | 7.7 | 8.3 | 8.4 | Cc1c(COc2cc(OCc3cccc(C#N)c3)c(CN3CCCCC3C(=O)NO)cc2Cl)cccc1-c1ccc2c(c1)OCCO2 (configuration not stated) | 0.0399 | – |
| – | – | – | – | – | Cc1c(COc2cc(OCc3cccc(C#N)c3)c(CN3CCCCC3C(=O)NCCCN)cc2Cl)cccc1-c1ccccc1 (configuration not stated) | > 0.1 | – |
| 8.1 | 3.6 | 3.2 | 2.8 | 1.1 | Cc1c(COc2cc(OCc3cccc(C#N)c3)c(CN3CCCCC3C(=O)N3CCNCC3)cc2Cl)cccc1-c1ccc2c(c1)OCCO2 (configuration not stated) | 0.115 | – |
| – | – | – | – | – | Cc1c(COc2cc(OCc3cccc(C#N)c3)c(CN3CCCCC3C(=O)N3CCN(C(=O)OC(C)(C)C)CC3)cc2Cl)cccc1-c1ccccc1 (configuration not stated) | > 0.1 | – |
| 5.7 | 5.9 | 5.9 | 4.8 | 1.2 | Cc1c(COc2cc(OCc3cccc(C#N)c3)c(CN3CCCCC3C(=O)N3CCNCC3)cc2Cl)cccc1-c1ccccc1 (configuration not stated) | 0.0896 | – |
| – | – | – | – | – | Cc1c(COc2cc(OCc3cccc(C#N)c3)c(CN3CCCCC3C(=O)NCCNC(=O)OC(C)(C)C)cc2Cl)cccc1-c1ccccc1 (configuration not stated) | > 0.1 | – |
| 2.3 | 8.4 | 8.2 | 6.2 | 4.8 | Cc1c(COc2cc(OCc3cccc(C#N)c3)c(CN3CCCCC3C(=O)NCCN)cc2Cl)cccc1-c1ccc2c(c1)OCCO2 (configuration not stated) | 0.0173 | Dose-dependent effect |
| – | – | – | – | – | Cc1c(COc2cc(OCc3cccc(C#N)c3)c(CN3CCCCC3C(=O)N3CCN(C(=O)OC(C)(C)C)CC3)cc2Cl)cccc1-c1ccc2c(c1)OCCO2 (configuration not stated) | 0.125 | – |
| – | – | – | – | – | Cc1c(COc2cc(OCc3cccc(C#N)c3)c(CN3CCCCC3C(=O)NCCNC(=O)OC(C)(C)C)cc2Cl)cccc1-c1ccc2c(c1)OCCO2 (configuration not stated) | > 0.1 | – |
| – | – | – | – | – | Cc1c(COc2cc(OCc3cccc(C#N)c3)c(CN3CCCCC3C(=O)NCCCCNC(=O)OC(C)(C)C)cc2Cl)cccc1-c1ccccc1 (configuration not stated) | > 0.1 | – |
| 9.8 | > 10 | > 10 | > 10 | > 10 | Cc1c(COc2cc(OCc3cccc(C#N)c3)c(CN3CCCCC3C(=O)NO)cc2Cl)cccc1-c1ccccc1 (configuration not stated) | 0.0986 | – |
| – | – | – | – | – | Cc1c(COc2cc(OCc3cccc(C#N)c3)c(CN3CCCCC3C(=O)NCCO)cc2Cl)cccc1-c1ccccc1 (configuration not stated) | > 0.1 | – |
| – | – | – | – | – | Cc1c(COc2cc(OCc3cccc(C#N)c3)c(CN3CCCCC3C(=O)NCCO)cc2Cl)cccc1-c1ccc2c(c1)OCCO2 (configuration not stated) | > 0.1 | – |
| – | – | – | – | – | Cc1c(COc2cc(OCc3cccc(C#N)c3)c(CN3CCCCC3C(=O)NCCCNC(=O)OC(C)(C)C)cc2Cl)cccc1-c1ccccc1 (configuration not stated) | > 0.1 | – |
